Values of other authors, collected in patent US11160882B2, “Indirect chromoendoscopy with an oral indigo carmine base preparation” (priority 2014, dated 2021).

Key:
[1] = rat, oral (Lethco et al., 1966)
[2] = humans (Oravisto K., 1957)
[3] = system: colon; conditions: 100 mg oral powder before the colonic prep
[4] = system: colon; conditions: 100 mg oral capsule before the colonic prep

## O=C1/C(=C2\Nc3ccc(S(=O)(=O)[O-])cc3C2=O)Nc2ccc(S(=O)(=O)[O-])cc21.[Na+].[Na+] [indigo carmine]
[1]
  dye taken orally that was absorbed: 3%
[2]
  clearance of absorbed food colorant from circulation: cleared very rapidly
Oral administration
  toxicity from oral administration: no reports of toxicity
Use as a food colorant
  daily intake certified by the FDA: up to 2 mg/kg
[3]
  side effects: No side effects were observed
[3]; left colon
  cases with good effect (staining), left colon: 50%
[3]; right colon
  cases with good effect (staining), right colon: 80%
[4]
  cases in which staining of the entire colon was ineffective: over 90%
